Data from ChEMBL document CHEMBL2073941, “TP-search Transporter Database” (Gastroenterology, 1994).

Target: T1, OAT1 (Solute carrier family 22 member 6) (Homo sapiens, UniProt Q4U2R8)
T1 sequence (Q4U2R8 whole entry): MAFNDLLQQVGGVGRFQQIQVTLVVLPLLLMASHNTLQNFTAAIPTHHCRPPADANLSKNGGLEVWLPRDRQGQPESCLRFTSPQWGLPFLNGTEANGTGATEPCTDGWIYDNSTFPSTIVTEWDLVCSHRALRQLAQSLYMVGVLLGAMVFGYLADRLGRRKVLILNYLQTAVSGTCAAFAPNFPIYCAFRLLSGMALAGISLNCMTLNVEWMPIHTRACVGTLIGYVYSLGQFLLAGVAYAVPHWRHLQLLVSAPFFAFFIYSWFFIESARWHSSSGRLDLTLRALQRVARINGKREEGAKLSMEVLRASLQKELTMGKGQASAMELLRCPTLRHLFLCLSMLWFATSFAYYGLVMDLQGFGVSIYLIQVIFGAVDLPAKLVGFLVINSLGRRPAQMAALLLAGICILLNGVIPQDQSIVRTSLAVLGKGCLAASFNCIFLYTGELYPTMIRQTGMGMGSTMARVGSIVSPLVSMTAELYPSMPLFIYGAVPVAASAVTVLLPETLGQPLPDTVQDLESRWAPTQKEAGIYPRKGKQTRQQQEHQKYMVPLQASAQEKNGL
Test: TP_TRANSPORTER: inhibition of Urate uptake (Urate: 300 uM, DIDS: 2000 uM) in OAT1-expressing S2 cells
Type: functional, cell-based
Design: scale not given: the % may be the effect or the level left
Conditions: S2 cells that express OAT1, probe urate (300 uM); read-out: Activity

Structure (SMILES): O=S(=O)(O)c1cc(N=C=S)ccc1/C=C/c1ccc(NC=S)cc1S(=O)(=O)O
- activity at 2000 µM: 64.2%
